Assay: xn = mol fraction of the nth substance listed
Conditions: 100 kPa

CCOCCOCCOCCO + CCCC[n+]1ccn(C)c1.F[P-](F)(F)(F)(F)F
speed of sound [m/s]
Conditions | x2 = 0.0558 | x2 = 0.1123 | x2 = 0.2121 | x2 = 0.3079 | x2 = 0.4014 | x2 = 0.5002 | x2 = 0.6006 | x2 = 0.7035 | x2 = 0.8015 | x2 = 0.9075
288.15 K | – | 1474.2 | – | 1486.2 | 1487.1 | 1485 | 1481.8 | 1478.4 | 1469.4 | 1467.9
293.15 K | 1448.3 | 1457 | 1466.8 | 1470.5 | 1472.2 | 1470.8 | 1468.1 | – | – | –
298.15 K | 1430.9 | 1440 | 1450.5 | 1455 | 1457.3 | – | 1454.5 | 1452.5 | 1444.6 | –
303.15 K | 1414.1 | 1423.2 | 1434.3 | 1439.6 | 1442.5 | 1442.7 | 1441.2 | 1439.1 | – | 1431.2
308.15 K | 1397.3 | 1406.5 | 1418.1 | 1424.2 | 1427.7 | – | 1427.8 | 1426.1 | 1420.7 | 1419.5
313.15 K | – | – | 1402.2 | 1409 | 1413.1 | 1415 | 1414.5 | 1413.5 | – | 1408
318.15 K | 1363.8 | 1373.6 | 1386.2 | 1393.8 | 1398.8 | 1401.1 | 1401.5 | 1400.7 | 1397.8 | 1396.6

From a compilation of properties of binary mixtures (doi:10.1016/j.molliq.2011.08.008)
